IC50 data for 32 compounds are collected here from patent publication US20240246918A1, “COMPOUNDS AND COMPOSITIONS AS EIF4E INHIBITORS AND THE USES THEREOF” (Ribometrix, Inc., priority 2022, published 2024).

One may read the IC50 as the concentration at which inhibition is half-maximal.

Assay [1] deals with COLO 205 colorectal tumor cells. The assay can be described thus: Tumor cell viability inhibition assay (CellTiter-Glo 2.0, 72 hours). It is filed as cell-based. As to conditions: COLO 205 cell viability. The method in brief: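 IC50 derived by 4-parameter fitting after normalizing luminescence to DMSO and max-inhibition wells. Compounds tested as 11 concentrations in 4-fold steps on COLO 205 cells seeded at 1500 per well in RPMI-1640/10% FBS; ATP content measured with CellTiter-Glo 2.0 after 72 h.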

In the next assay the target is T1, human eIF4E protein (Homo sapiens, UniProt P06730).
T1 construct: purchased Novus NBP-45314
T1 sequence (P06730 whole entry): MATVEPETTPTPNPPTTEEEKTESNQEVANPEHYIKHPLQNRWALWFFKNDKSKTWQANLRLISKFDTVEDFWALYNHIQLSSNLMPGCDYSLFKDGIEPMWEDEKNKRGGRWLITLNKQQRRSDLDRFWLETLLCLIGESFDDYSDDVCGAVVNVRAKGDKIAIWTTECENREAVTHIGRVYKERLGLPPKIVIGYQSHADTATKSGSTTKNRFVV
Briefly: Biochemical competitive binding assay (TR-FRET competition, EDA-m7GDP-ATTO-647N probe). As to conditions: read-out: hEIF4E TR-FRET IC50. The method in brief: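 IC50 values come from 4-parameter fits of the normalized 665/620 nm TR-FRET ratio. Compound was first incubated 15 min with 4 nM recombinant His-eIF4E bound to 2.5 nM Eu-anti-His antibody, then 15 min with 5 nM m7GDP-ATTO-647N tracer, in pH 7.5 HEPES buffer with 100 mM KCl, Tween-20 and BSA.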

Consider `Cc1csc([C@@H]2CCCN([C@@H]3CCc4nc(C)n(CCOc5ccc(Cl)cc5-c5cc(C)nc6c(C(=O)O)csc56)c(=O)c4C3)C2)n1` (single isomer, unassigned) [Compound 484], for which the IC50 is less than 5 µM in assay [1] (Homo sapiens, COLO 205, 72 h) and less than 0.1 µM on human eIF4E protein.

`Cc1cc(-c2cc(Cl)ccc2OCCn2c(C)nc3c(c2=O)C[C@@H](N2CCC(n4cccn4)CC2)CC3)c2scc(C(=O)O)c2n1` (single isomer, unassigned) [Compound 474]: the IC50 in assay [1] (Homo sapiens, COLO 205, 72 h) was less than 5 µM; at human eIF4E protein, less than 0.1 µM.

As to `Cc1cc(-c2cc(Cl)ccc2OCCn2c(C)nc3c(c2=O)C[C@H](N2CCCC[C@H]2c2nccs2)CC3)c2scc(C(=O)O)c2n1` (single isomer, unassigned) [Compound 546], the IC50 was less than 5 µM in assay [1] (Homo sapiens, COLO 205, 72 h) and less than 0.1 µM on human eIF4E protein.

With `Cc1cc(-c2cc(Cl)ccc2OCCn2c(C)nc3c(c2=O)C[C@H](N2C[C@H]4CC[C@@H]2CC4OC(F)(F)F)CC32CC2)c2scc(C(=O)O)c2n1` (single isomer, unassigned) [Compound 606], the half-maximal inhibitory concentration (IC50) in assay [1] (Homo sapiens, COLO 205, 72 h) was less than 5 µM; at human eIF4E protein, less than 0.1 µM.

With `CCN(Cc1ccnc(OC)c1)C1CCc2nc(C)n(CCOc3ccc(Cl)cc3-c3cc(C)nc4c(C(=O)O)csc34)c(=O)c2C1` (stereo not shown) [Compound 129], the IC50 in assay [1] (Homo sapiens, COLO 205, 72 h) is less than 5 µM; at human eIF4E protein, less than 0.1 µM.

On to `Cc1cc(-c2cc(Cl)ccc2OCCn2c(C)nc3c(c2=O)C[C@H](N2CCC(CC(F)(F)F)CC2)CC3)c2scc(C(=O)O)c2n1` (single isomer, unassigned) [Compound 107], for which the half-maximal inhibitory concentration (IC50) in assay [1] (Homo sapiens, COLO 205, 72 h) was less than 5 µM; on human eIF4E protein, less than 0.1 µM.

As to `Cc1cc(-c2cc(Cl)ccc2OCCn2c(C)nc3c(c2=O)C[C@@H](N2CCC(n4ccnn4)CC2)CC3)c2scc(C(=O)O)c2n1` (single isomer, unassigned) [Compound 423], the half-maximal inhibitory concentration (IC50) was 5 to 20 µM in assay [1] (Homo sapiens, COLO 205, 72 h) and less than 0.1 µM at human eIF4E protein.

As to `Cc1cc(-c2cc(Cl)ccc2OCCn2c(C)nc3c(c2=O)C[C@@H](N2CCCC[C@@H]2C)CC3)c2scc(C(=O)O)c2n1` (single isomer, unassigned) [Compound 409], the IC50 was more than 20 µM in assay [1] (Homo sapiens, COLO 205, 72 h) and less than 0.1 µM at human eIF4E protein.

With `Cc1cc(-c2cc(Cl)ccc2OCCn2c(C)nc3c(c2=O)CC(N2CCC4(CN(CC(F)(F)F)CC(F)(F)C4)C2)CC3)c2scc(C(=O)O)c2n1` (single isomer, unassigned) [Compound 511], the 50% inhibitory concentration (IC50) in assay [1] (Homo sapiens, COLO 205, 72 h) is less than 5 µM; at human eIF4E protein, less than 0.1 µM.

On to `Cc1cc(-c2cc(Cl)c(=O)[nH]c2OCCn2c(C)nc3c(c2=O)CC(N(C)CC2CC(F)(F)C2)CC3)c2scc(C(=O)O)c2n1` (single isomer, unassigned) [Compound 237], for which the half-inhibitory concentration (IC50) was more than 20 µM in assay [1] (Homo sapiens, COLO 205, 72 h) and 0.5 to 5 µM on human eIF4E protein.

Regarding `Cc1cc(-c2cc(Cl)ccc2OCCn2c(C)nc3c(c2=O)CC(N2CCC4(CC2)CNCCO4)CC3)c2scc(C(=O)O)c2n1` (single isomer, unassigned) [Compound 527], the concentration for half-maximal inhibition (IC50) in assay [1] (Homo sapiens, COLO 205, 72 h) was more than 20 µM; on human eIF4E protein, less than 0.1 µM.

`Cc1cc(-c2cc(Cl)ccc2OCCn2c(C)nc3c(c2=O)C[C@@H](N2CCC[C@@]4(C2)CC4(F)F)CC3(C)C)c2scc(C(=O)O)c2n1` (single isomer, unassigned) [Compound 441]: the half-maximal inhibitory concentration (IC50) was 5 to 20 µM in assay [1] (Homo sapiens, COLO 205, 72 h) and less than 0.1 µM on human eIF4E protein.

`Cc1cc(-c2cc(Cl)ccc2OCCn2c(C)nc3c(c2=O)C[C@@H](N2CC[C@H](OC(F)(F)F)C2)CC3)c2scc(C(=O)O)c2n1` (single isomer, unassigned) [Compound 388]: the IC50 is less than 5 µM in assay [1] (Homo sapiens, COLO 205, 72 h) and less than 0.1 µM on human eIF4E protein.

With `Cc1cc(-c2cc(Cl)ccc2OCCn2c(C)nc3c(c2=O)C[C@H](N2CCC[C@@]4(C2)CC4(F)F)CC32CC2)c2scc(C(=O)O)c2n1` (single isomer, unassigned) [Compound 580], the concentration for half-maximal inhibition (IC50) is less than 5 µM in assay [1] (Homo sapiens, COLO 205, 72 h) and less than 0.1 µM on human eIF4E protein.

With `Cc1cc(-c2cc(Cl)ccc2OCCn2c(C)nc3c(c2=O)CC(N2CCC(OC(F)(F)F)CC2)CC32CC2)c2scc(C(=O)NS(C)(=O)=O)c2n1` (single isomer, unassigned) [Compound 579, 7-(5-chloro-2-(2-(2′-methyl-4′-oxo-6′-(4-(trifluoromethoxy)piperidin-1-yl)-6′,7′-dihydro-4′H-spiro[cyclopropane-1,8′-quinazolin]-3′(5′H)-yl)ethoxy)phenyl)-5-methyl-N-(methylsulfonyl)thieno[3,2-b]pyridine-3-carboxamide], the IC50 in assay [1] (Homo sapiens, COLO 205, 72 h) is less than 5 µM; on human eIF4E protein, less than 0.1 µM.

Turning to `COC1CCN(C2CCc3nc(C)n(CCOc4ccc(Cl)cc4-c4cc(C)nc5c(C(N)=O)csc45)c(=O)c3C2)CC1` (stereo not shown) [Compound 133], the IC50 in assay [1] (Homo sapiens, COLO 205, 72 h) is 5 to 20 µM; on human eIF4E protein it was 0.1 to 0.5 µM.

On to `Cc1cc(-c2cc(Cl)ccc2OCCn2c(C)nc3c(c2=O)C[C@@H](N2CC[C@H](C(F)F)C2)CC3)c2scc(C(=O)O)c2n1` (single isomer, unassigned) [Compound 113], for which the IC50 was less than 5 µM in assay [1] (Homo sapiens, COLO 205, 72 h) and less than 0.1 µM at human eIF4E protein.

Take `Cc1cc(-c2cc(Cl)ccc2OCCn2c(C)nc3c(c2=O)C[C@H](N2CCC4(CC2)CC4(F)F)CC32CC2)c2scc(C(=O)O)c2n1` (single isomer, unassigned) [Compound 564]: the IC50 was less than 5 µM in assay [1] (Homo sapiens, COLO 205, 72 h) and less than 0.1 µM at human eIF4E protein.

For `Cc1cc(-c2cc(Cl)ccc2OCCn2c(C)nc3c(c2=O)CC(N2CCC(OC(F)(F)F)CC2)CC32CC2)c2scc(C(=O)O)c2n1` (single isomer, unassigned) [Compound 379, 7-(5-chloro-2-(2-(2′-methyl-4′-oxo-6′-(4-(trifluoromethoxy)piperidin-1-yl)-6′,7′-dihydro-4′H-spiro[cyclopropane-1,8′-quinazolin]-3′(5′H)-yl)ethoxy)phenyl)-5-methylthieno[3,2-b]pyridine-3-carboxylic acid], the 50% inhibitory concentration (IC50) in assay [1] (Homo sapiens, COLO 205, 72 h) was less than 5 µM; on human eIF4E protein it was less than 0.1 µM.

In the case of `Cc1cc(-c2cc(Cl)ccc2OCCn2c(C)nc3c(c2=O)CC(N2CCC(OC(F)(F)F)CC2)CC3(C)C)c2scc(C(=O)O)c2n1` (single isomer, unassigned) [Compound 443, 7-(5-chloro-2-(2-(2,8,8-trimethyl-4-oxo-6-(4-(trifluoromethoxy)piperidin-1-yl)-5,6,7,8-tetrahydroquinazolin-3(4H)-yl)ethoxy)phenyl)-5-methylthieno[3,2-b]pyridine-3-carboxylic acid], the results for the IC50 (in assay [1]; at human eIF4E protein) were less than 5 µM and less than 0.1 µM, respectively.

For the compound `Cc1cc(-c2cc(Cl)ccc2OCCn2c(C)nc3c(c2=O)C[C@@H](N2CCC(Oc4ccc(F)cc4F)CC2)CC3)c2scc(C(=O)O)c2n1` (single isomer, unassigned) [Compound 596], the IC50 in assay [1] (Homo sapiens, COLO 205, 72 h) was less than 5 µM; at human eIF4E protein it was less than 0.1 µM.

Consider `Cc1cc(-c2cc(Cl)ccc2OCCn2c(C)nc3c(c2=O)C[C@@H](N2CCC(O)CC2)CC3)c2scc(C(=O)O)c2n1` (single isomer, unassigned) [Compound 435], for which the IC50 in assay [1] (Homo sapiens, COLO 205, 72 h) was less than 5 µM; at human eIF4E protein, less than 0.1 µM.

With `Cc1cc(-c2cc(Cl)ccc2OCCn2c(C)nc3c(c2=O)C[C@H](N2CCC(c4ncn(C)n4)CC2)CC3)c2scc(C(=O)O)c2n1` (single isomer, unassigned) [Compound 462], the IC50 in assay [1] (Homo sapiens, COLO 205, 72 h) was less than 5 µM; at human eIF4E protein it was less than 0.1 µM.

With `Cc1cc(-c2cc(Cl)ccc2OCCn2c(C)nc3c(c2=O)C[C@@H](N2CCC[C@@H](c4ccn(C)n4)C2)CC3)c2scc(C(=O)O)c2n1` (single isomer, unassigned) [Compound 446], the half-maximal inhibitory concentration (IC50) in assay [1] (Homo sapiens, COLO 205, 72 h) was more than 20 µM; on human eIF4E protein, less than 0.1 µM.

Take `Cc1cc(-c2cc(Cl)ccc2OCCn2c(C)nc3c(c2=O)C[C@@H](N2CC4(CCC(F)(F)CC4)C2)CC3)c2scc(C(=O)O)c2n1` (single isomer, unassigned) [Compound 128]: the concentration for half-maximal inhibition (IC50) in assay [1] (Homo sapiens, COLO 205, 72 h) was less than 5 µM; at human eIF4E protein, less than 0.1 µM.

`Cc1cc(-c2cc(Cl)ccc2OCCn2c(C)nc3c(c2=O)C[C@@H](N2CCC[C@@]4(C2)CC4(F)F)CC32CC2)c2scc(C(=O)O)c2n1` (single isomer, unassigned) [Compound 582]: the IC50 was less than 5 µM in assay [1] (Homo sapiens, COLO 205, 72 h) and less than 0.1 µM at human eIF4E protein.

On to `Cc1cc(-c2cc(Cl)ccc2OCCn2c(C)nc3c(c2=O)C[C@@H](N2CCO[C@H](COC(F)(F)F)C2)CC3)c2scc(C(=O)O)c2n1` (single isomer, unassigned) [Compound 480], for which the 50% inhibitory concentration (IC50) in assay [1] (Homo sapiens, COLO 205, 72 h) was less than 5 µM; on human eIF4E protein, less than 0.1 µM.

In the case of `Cc1cc(-c2cc(Cl)ccc2OCCn2c(C)nc3c(c2=O)C[C@H](N2CCC[C@H](c4cnn(C)c4)C2)CC3)c2scc(C(=O)O)c2n1` (single isomer, unassigned) [Compound 485], the IC50 is less than 5 µM in assay [1] (Homo sapiens, COLO 205, 72 h) and less than 0.1 µM at human eIF4E protein.

As for `Cc1cc(-c2cc(Cl)ccc2OCCn2c(C)nc3c(c2=O)C[C@H](N2CC4CCC(C2)C4OC(F)(F)F)CC3)c2scc(C(=O)O)c2n1` (single isomer, unassigned) [Compound 494], the half-inhibitory concentration (IC50) in assay [1] (Homo sapiens, COLO 205, 72 h) was less than 5 µM; on human eIF4E protein it was less than 0.1 µM.

As for `Cc1cc(-c2cc(Cl)ccc2OCCn2c(C)nc3c(c2=O)C[C@@H](N(C)C[C@H]2C[C@](C)(O)C2)CC3)c2scc(C(=O)O)c2n1` (single isomer, unassigned) [Compound 211], the IC50 in assay [1] (Homo sapiens, COLO 205, 72 h) was more than 20 µM; at human eIF4E protein, less than 0.1 µM.

On to `Cc1cc(-c2cc(Cl)ccc2OCCn2c(C)nc3c(c2=O)C[C@H](N2CCC(c4nc5ccc(F)cc5s4)CC2)CC3)c2scc(C(=O)O)c2n1` (single isomer, unassigned) [Compound 593], for which the 50% inhibitory concentration (IC50) was less than 5 µM in assay [1] (Homo sapiens, COLO 205, 72 h) and less than 0.1 µM on human eIF4E protein.

For the compound `Cc1cc(-c2cc(Cl)ccc2OCCn2c(C)nc3c(c2=O)C[C@H](N2CCCC[C@H]2c2cccc(C(F)(F)F)c2)CC3)c2scc(C(=O)O)c2n1` (single isomer, unassigned) [Compound 587], the IC50 is less than 5 µM in assay [1] (Homo sapiens, COLO 205, 72 h) and less than 0.1 µM on human eIF4E protein.
